“And” between values parts separate entries of the source, which are not always exact repeats. Identical values can stand only once.
Assays:
[1] = test system: HepaRG cells; assay: Neutral lipids with Nile red in HepaRG cells; settings: 4 days; for Accumulation of neutral lipids (steatosis): selected concentrations (ATP loss < 30%, not above 100 × Cmax), vs control
Description: (§1) Briefly, HepaRG cells were seeded in 96-well plates at a density of 2.6 × 10^4 cells/cm^2 and were first incubated in William’s E medium supplemented with 10% FBS (50% FBS from Eurobio and 50% FBS from GE Healthcare), 100 U/mL penicillin, 100 μg/mL streptomycin, 2 mM glutamine, 5 μg/mL insulin, and 50 μM hydrocortisone hemisuccinate. […] During this 1-month period, the culture medium was renewed three times a week. […] HepaRG cells were next cultured in the same FBS/DMSO conditions and incubated for 4 days with each drug at different concentrations. Culture medium was renewed every day and all investigations were performed after 96 h (i.e., 24 h after the fourth treatment). These investigations were mostly performed in 96-well plates except for western blot analysis, for which 6-well plates were used. Experiments were carried out on passages 9 to 16. All drugs (except DPEN), etomoxir, lomitapide, tunicamycin, thapsigargin, and TUDCA were dissolved in DMSO. DPEN was dissolved in water.
Cells were then incubated with PBS containing 0.1 μg/mL Nile red for 30 min and washed once. […] For each well, four pictures were taken at a magnification of × 20 and analyzed with Columbus software (PerkinElmer) for quantification. These pictures were always taken in four different areas around the center of each well, and these areas were the same from one well to another, as programmed by the Columbus software. This software was also designed to count only living cells after exclusion of dying cells harboring nuclei with abnormal shape or altered Hoechst intensity. […] Neutral lipids were then normalized per number of nuclei and expressed relative to control cells. Examples of images used for neutral lipid quantification are shown in Supplementary Fig. 2.

[2] = test system: de novo lipogenesis (DNL); assay: DNL from [2-14C]acetic acid in HepaRG cells; assay type: cell-based, human; settings: 4 days, vs control
Description: (§2) Experiments were carried out on passages 9 to 16. […] DPEN was dissolved in water.
DNL was assessed by measuring newly synthesized radiolabeled lipids from [2-^14C]acetic acid, using a protocol adapted from Byrne et al. ([2014]). Briefly, culture medium was removed and cells were washed with warm PBS. Next, cells were incubated for 3 h with phenol red-free William’s E medium containing 1% fatty acid-free BSA, [2-^14C]acetic acid (1850 Bq per well, corresponding to 19.4 pM) and 50 μM cold acetic acid. Medium was then gently removed and cells were washed with warm PBS before adding a mix of hexane/isopropanol (3:2; v/v). Cell culture plates were sealed and incubated for 1 h at room temperature for lipid extraction. After transfer of the plate content in 200-μL microtubes, hexane and PBS were added to have a hexane/isopropanol/PBS ratio of 6:2:3 (v/v/v). Microtubes were then centrifuged at 1000×g for 5 min and radiolabeled lipids were counted in the upper phase with a Tri-Carb 4910TR liquid scintillation counter (PerkinElmer). Results were normalized to total protein content and expressed in comparison to control cells.

[3] = test system: apoB secretion; assay: apoB level in culture medium (ELISA), HepaRG cells; assay type: cell-based, human; settings: 4 days; for Effect on apoB secretion: culture medium, vs control
Description: as §2
Twenty-four hours after the last treatment, cell supernatants were removed and stored at − 80 °C until use for apolipoprotein measurement. ApoB level was measured using the Human Apolipoprotein B ELISA^pro kit from Mabtech (Nacka Strand, Sweden), according to the manufacturer’s instructions. Briefly, 50 μL of samples were diluted 2× in Apo ELISA buffer before a 2-h incubation in the precoated strip plates provided in the kit. The plates were washed and incubated 1 h with the biotinylated monoclonal anti-human apoB (LDL-11-biotin) antibody. The plates were then washed and incubated 1 h with a streptavidin–horseradish peroxidase conjugated antibody. After another washing, 3,3′,5,5′-tetramethylbenzidine (TMB) was used as substrate for 15 min before adding a stop solution. Absorbance at 450 nm was then measured using a POLARstar Omega microplate reader (BMG Labtech, Ortenberg). ApoB level was calculated utilizing a four-parameter standard curve, and normalized to the total cellular protein content and expressed in comparison to control cells.

[4] = test system: apoC3 secretion; assay: apoC3 level in culture medium (HTRF), HepaRG cells; assay type: cell-based, human; settings: 4 days, culture medium, vs control
Description: as §1
Apolipoprotein C3 (apoC3) level was measured using the Human Apolipoprotein C3 kit from Cisbio Bioassays (Codolet, France), according to the manufacturer’s instructions. Briefly, 10 μL of supernatants was incubated with two different specific anti-human apoC3 antibodies, one donor and one acceptor. The detection principle of apoC3 is based on HTRF® (Homogeneous Time Resolved Fluorescence), a time-resolved FRET (Förster Resonance Energy Transfer) technology. After 2 h of incubation, light emission was measured with the Infinite F Nano+ microplate reader (Tecan, Männedorf, Switzerland). ApoC3 level was calculated utilizing standard curve, based on the ratio of A665 nm/A615 nm, and normalized to the total cellular protein content. Results were expressed in comparison to control cells.

[5] = test system: HepaRG cells; assay: Cellular ATP level (CellTiter-Glo) in HepaRG cells; assay type: cell-based, human; settings: 4 days, vs controls
Description: Cellular ATP level was measured using the CellTiter-Glo® Luminescent Cell Viability assay purchased from Promega (Charbonnières, France), according to the manufacturer’s instructions. Briefly, control and treated HepaRG cells were first washed with warm PBS and kept for 30 min at room temperature in phenol red-free William’s E medium. Cells were next incubated with the CellTiter-Glo® reagent for 10 min at room temperature. Cells were then transferred in opaque-walled multiwell plates and the luminescent signal was quantified using a POLARstar Omega microplate reader (BMG Labtech, Ortenberg, Germany). Results were expressed in comparison to control cells.

[6] = Maximum plasma concentration (Cmax) in patients; assay type: in vivo, human; settings: worked out from cited Cmax in patients
[7] = test system: ATP citrate lyase (ACLY); assay: RT-qPCR ACLY mRNA in HepaRG cells; assay type: cell-based, human; settings: 4 days, vs control
Description: (§3) Total RNA was extracted with the Nucleospin RNA isolation system purchased from Macherey-Nagel (Düren, Germany), which included a DNase treatment step. Quantification of isolated RNAs was assessed using a Nanodrop 1000 (Thermo Fisher Scientific, Waltham, MA). RNAs were reverse-transcribed into cDNAs using the High-Capacity cDNA Reverse Transcription Kit purchased from Applied Biosystems (Woolston, UK). Gene expression was assessed by real-time quantitative PCR analysis (RT-qPCR) using SYBR Green PCR Master Mix (Applied Biosystems) and a 384-well QuantStudio™ 7 Flex Real-Time PCR System (Thermo Fisher Scientific). Sequences of the primers used to measure gene expression are presented in Supplementary Table 3. Expression of GAPDH was chosen as reference and the 2^−ΔΔCt calculation method was used to express the relative expression of each selected gene.

[8] = test system: acetyl-CoA carboxylase alpha (ACACA); assay: RT-qPCR ACACA mRNA in HepaRG cells; assay type: cell-based, human; settings: 4 days, vs control
Description: as §3

[9] = test system: fatty acid synthase (FASN); assay: RT-qPCR FASN mRNA in HepaRG cells; assay type: cell-based, human; settings: 4 days, vs control
Description: as §3

[10] = test system: ERN1 (IRE1α); assay: RT-qPCR ERN1 mRNA in HepaRG cells; assay type: cell-based, human; settings: 4 days, vs control
Description: as §3

[11] = patients, ref given per drug, cited from earlier work
[12] = treated patients; ref Schulz M et al., Crit Care 2012 ;16(4):R136; listed as Sulindac (SUL); cited from earlier work
[13] = test system: HepaRG cells; assay: Number of nuclei (Hoechst 33342) in HepaRG cells; assay type: cell-based, human; settings: HepaRG cells treated with TUDCA alone
[14] = test system: apolipoprotein B (APOB); assay: RT-qPCR APOB mRNA in HepaRG cells; assay type: cell-based, human; settings: 4 days
Description: as §3

[15] = test system: mitochondrial fatty acid oxidation (mtFAO); assay: mtFAO with [U-14C]palmitic acid in HepaRG cells; assay type: cell-based, human; settings: 4 days, vs control
Description: as §2
Results were normalized to total protein content determined using the Pierce BCA assay kit from Thermo Fischer Scientific (Waltham, MA). Results were expressed in comparison to control cells.

[16] = test system: apolipoprotein C3 (APOC3); assay: RT-qPCR APOC3 mRNA in HepaRG cells; assay type: cell-based, human; settings: 4 days, vs control
Description: as §3

[17] = test system: microsomal triglyceride transfer protein (MTTP); assay: RT-qPCR MTTP mRNA in HepaRG cells; assay type: cell-based, human; settings: 4 days, vs control
Description: as §3

[18] = test system: prolyl 4-hydroxylase subunit beta (P4HB, also known as PDI); assay: RT-qPCR P4HB mRNA in HepaRG cells; assay type: cell-based, human; settings: 4 days, vs control
Description: as §3

[19] = test system: angiopoietin-like 3 (ANGPTL3); assay: RT-qPCR ANGPTL3 mRNA in HepaRG cells; assay type: cell-based, human; settings: 4 days, vs control
Description: as §3

[20] = test system: HSPA5 (BIP); assay: RT-qPCR HSPA5 mRNA in HepaRG cells; assay type: cell-based, human; settings: 4 days, vs control
Description: as §3

[21] = test system: DDIT3 (CHOP); assay: RT-qPCR DDIT3 mRNA in HepaRG cells; assay type: cell-based, human; settings: 4 days, vs control
Description: as §3

[22] = TUDCA 2 or 4 mM with 750 μM ALLO, 300 μM INDO, 300 μM RIF or 10 μM tunicamycin

Compound | Accumulation of neutral lipids (steatosis) [1] | Effect on DNL [2] | Effect on apoB secretion [3] | ERN1 (IRE1α) mRNA level [10] | Effect on mtFAO [15] | APOC3 mRNA level [16] | MTTP mRNA level [17] | P4HB (PDI) mRNA level [18] | ANGPTL3 mRNA level [19] | HSPA5 (BIP) mRNA level [20] | DDIT3 (CHOP) mRNA level [21] | other results
CC1=C(CC(=O)O)c2cc(F)ccc2/C1=C\c1ccc([S+](C)[O-])cc1 (stereo not drawn) [SUL, sulindac] | significant accumulation of neutral lipids | increased DNL | reduced the secretion | enhanced IRE1α mRNA level | – | – | – | – | – | – | – | Effect on apoC3 secretion [4]: reduced the secretion; Loss of cellular ATP relative to the maximum concentration selected for the study [5]: 1000 µM (loss of cellular ATP above 30% of the controls for higher concentrations, as shown in Supp. fig 1); Concentration corresponding to 100xCmax [6]: 3200 µM; ACLY mRNA level [7]: augmented mRNA abundance; ACACA mRNA level [8]: augmented mRNA abundance; FASN mRNA level [9]: augmented mRNA abundance; Maximum plasma concentration (Cmax) in patients [11]: ≤ 11400 ng/mL; Cmax ([11]; read-out: Maximum plasma concentration (Cmax) in patients): ≤ 32 µM; Therapeutic blood (or plasma) concentration in patients [12]: 1 - 5 mg/L and 2.8 - 14 µM
C[C@H](CCC(=O)NCCS(=O)(=O)O)[C@H]1CC[C@H]2[C@@H]3[C@@H](O)C[C@@H]4C[C@H](O)CC[C@]4(C)[C@H]3CC[C@]12C [TUDCA, tauroursodeoxycholic acid] | – | – | – | – | – | – | – | – | – | – | – | Effect on neutral lipid accumulation induced by ALLO, INDO, RIF or tunicamycin [1, 22]: alleviate neutral lipid accumulation; Effect on apoB secretion in cells cotreated with ALLO, INDO, RIF or tunicamycin [3, 22]: improved apoB secretion; Increase in the number of nuclei [13]: 38%; Effect on APOB mRNA level in cells cotreated with ALLO, INDO, RIF or tunicamycin [14, 22]: higher apoB mRNA level
C/C=C(/C)C(=O)O[C@H]1C(C)=C2[C@H]([C@@H]1OC(=O)CCCCCCC)[C@@](C)(OC(C)=O)C[C@H](OC(=O)CCC)[C@@]1(O)[C@H]2OC(=O)[C@@]1(C)O [thapsigargin] | – | strongly reduced DNL | reduced secretion of apoB | augmented the mRNA level | increased mtFAO | reduced the mRNA level | reduced the mRNA level | induced | reduced the mRNA level | augmented the mRNA level | augmented the mRNA level | APOB mRNA level ([14]; vs control): also reduced APOB mRNA abundance
tunicamycin | increased neutral lipids | strongly reduced DNL | reduced secretion of apoB | augmented the mRNA level | increased mtFAO | reduced the mRNA level | reduced the mRNA level | induced | reduced the mRNA level | augmented the mRNA level | augmented the mRNA level | –

Source: paper PMC8012331, “Drug-induced hepatic steatosis in absence of severe mitochondrial dysfunction in HepaRG cells: proof of multiple mechanism-based toxicity” (Cell Biology and Toxicology, 2020)
